Tests used:
[1] = test system: A. thaliana plants (Col-0); assay: Cold tolerance assay; format: in vivo, Arabidopsis thaliana; details: cold treatment to -10° C., scored after 5 days; controls ~30%
Protocol: HDACs have also been implicated in responses to a number of abiotic stresses, such as temperature, drought, salt, etc in a variety of ways (M. Luo, et al., Frontiers in Plant Science 8, (2017)). One of the phenotypes that can be rapidly tested in a laboratory is tolerance to cold temperatures in Arabidopsis. […] The yellowing of leaves was determined after 5 days and the controls ˜30% of the leaves turned yellow-brown in the classic cold response previously documented.
Twenty six day old A. thaliana plants (Col-0), that had been transplanted at day 7 to soil, were cold-acclimatized the plants for 7 days at 4° C., and then transferred to respective odor exposure chambers with a petridish containing 2 ml of chemical dissolved in PO or PO alone in a freezing chamber in which temperatures went down every 2° C. for 0.5 h and maintained for 1 hour, and it dropped up to −10° C. […] The survival rate was determined after 5 days. […] One-way analysis of Variance (ANOVA) between groups was performed for plant exposure quantitative data using Graph Pad Prism 9.

[2] = test system: Class I and Class II HDACs; assay: In vitro assays with purified human Class I and II HDACs (panel statements); format: biochemical; details: 15 mM in 1% DMSO; HDAC 1, 3, 4 and 6
Protocol: Presented are data for selected compounds that act as Histone deacetylase inhibitors in vitro or HDAC inhibitors. 26 compounds were screened against purified human HDACs.
HDAC activity of class I HDACs (HDAC1 and 3) was measured with the fluorometric HDAC Activity Assay kit: HDAC1 (10011563, Cayman Chemical, Ann Arbor, MI) and HDAC3 (50073 BPS Bioscience, San Diego, CA), according to the manufacturer's instructions. HDAC activity of class II HDACs (HDAC4 and HDAC6) was measured with the fluorometric HDAC Activity Assay kit: HDAC4, […] (50064 and 50076, BPS Bioscience, San Diego, CA), according to the manufacturer's instructions. All compounds were tested in single dose duplicate mode at 15 mM concentrations in 1% DMSO, based on the IC50 of 2,3-butanedione established in earlier work. Due to interference, concentrations of >30 mM were not used in the IC50 calculation. To account for any interference at lower concentrations, all baseline measurements of blank wells (no HDAC enzyme) were performed and subtracted with the various concentrations of 2,3-butanedione.
Diacetyl and 3 structurally related VOCs were evaluated using in vitro assay kits for measuring activity of four purified HDACs. Of the four VOCs), each has a different functional group, two are natural in origin, previously detected from microbes that are known to be present in soil (M. C. Lemfack et al., Nucleic Acids Res 46, D1261-D1265 (2018); and R. H. Cagan, W. N. Zeiger, Proc. Nat. Acad. Sci. U.S.A. 75, 4679-4683 (1978)) and two that are not (α-angelica lactone and ethyl pyruvate). […] All 4 VOCs inhibited both Class I HDACs (L. L. Walling, The Myriad Plant Responses to Herbivores. J Plant Growth Regul 19, 195-216 (2000); and M. Heil, R. Karban, Trends Ecol Evol 25, 137-144 (2010)) and the Class II HDAC6 with differences in degree (FIG. 2A,B).

[3] = test system: A549 Cancer cell line; assay: Cancer cell viability assay, A549; format: cell-based, human
Protocol: Cells were maintained in a 37° C. incubator with 5% CO2 throughout the experiment. Compound stocks were dissolved in 10% DMSO, but final concentrations were made fresh in complete media as needed. 10% DMSO solvent was used as control in complete media. Cells were seeded onto 12-well plates and allowed 12-24 hours until treatment began to allow cells to adhere to wells. This was followed by minimum 5-day treatment of compounds, changing the media with treatment every 48 hours. Cell lines A549, PC3, and SK-MEL-5 were seeded at 8000 cells/well which would provide 80-100% confluency after 6-day growth. SH-SY5Y was seeded at 8000 cells/well then 16,000 cells/well due to slower growth and given at least 10 days for sufficient growth. After allotted growth times, cell counts were performed via Countess™ automated cell counter. All assays were completed with a minimum of triplicate replicates for all conditions and analyzed through GraphPad Prism One-way ANOVA for significance.

[4] = test system: Arabidopsis thaliana roots; assay: RNA-Seq of roots of diacetyl vapor exposed Arabidopsis seedlings; format: in vivo
Protocol: In order to understand the molecular changes occurring with the volatile exposure and possibly underlying this developmental phenotype, an RNA-Seq analysis of the roots in diacetyl exposed vs control was performed. A large number of differentially expressed genes (DEGs) was found in the roots of the diacetyl vapor exposed Arabidopsis. 5197 differentially expressed genes (DEGs) (false discovery rate, FDR<0.05) were identified in the root transcriptome of diacetyl-exposed seedlings compared to control.
A. thaliana plants (Col-0) were grown in an Agar medium were synchronized to germinate using pre-treatment in cold. Exposure experiments were started using plants the plates when they were 11 days old and placed in a 10-gallon glass aquarium as a chamber along with a petri dish containing 1 ml of chemical dissolved in PO or PO alone were placed at the other side of the container. After the desired exposure, the roots were separated, and a Trizol-based RNA isolation was carried out as above. Two biological replicates were performed for each condition, with an average of 68,355,820 reads/replicate, with an average of 95% mapped. Multiplexed libraries were made from total RNA input using the Illumina TruSeq RNA sample preparation kit (v2) and 50 bps single-end sequencing was done using the NextSeq500.

CC(=O)C(C)=O [2,3-butanedione]
yellow leaves after freezing [1]: ~20%
HDAC inhibition against Class I and Class II HDACs [2]: inhibits both class 1 and class 2 HDACs
changes in proliferation, A549 ([3]; 100 mM treatment, triplicates): No significant changes in proliferations
inhibition of cell growth, A549 ([3]; 33 micro-molar): may be some A549 inhibition
differentially expressed genes (DEGs) in the root transcriptome ([4]; 1% (v/v) headspace, 7 days, FDR<0.05): 5197 genes
significantly down-regulated genes in roots ([4]; log2 fold-change<-1, FDR<0.05): 2572 genes
significantly up-regulated genes in roots ([4]; log2 fold-change>1, FDR<0.05): 2625 genes

— US20250212873A1, “VOLATILE HDAC INHIBITORS FOR THERAPEUTIC AND PLANT APPLICATIONS” (The Regents of the University of California, priority 2022, published 2025)
